Experiments:
[1] = Inhibition of human PKA using Kemptide as substrate incubated for 40 mins in presence of [gamma-33P]ATP by radiometric scintillation counting analysis
[2] = target: Rho-associated protein kinase 1 (Homo sapiens, UniProt Q13464); assay: Inhibition of recombinant human ROCK1 (17 to 535 residues) using […] as substrate incubated for 40 mins in presence of [gamma-33P]ATP and 10 uM ATP by radiometric scintillation counting analysis
[3] = target: Rho-associated protein kinase 2 (Homo sapiens, UniProt O75116); assay: Inhibition of recombinant human ROCK2 (11 to 552 residues) using KEAKEKRQEQIAKR as substrate incubated for 40 mins in presence of [gamma-33P]ATP and 10 uM ATP by radiometric scintillation counting analysis
Chain of Rho-associated protein kinase 2 (O75116 whole entry, the tested form may be a part): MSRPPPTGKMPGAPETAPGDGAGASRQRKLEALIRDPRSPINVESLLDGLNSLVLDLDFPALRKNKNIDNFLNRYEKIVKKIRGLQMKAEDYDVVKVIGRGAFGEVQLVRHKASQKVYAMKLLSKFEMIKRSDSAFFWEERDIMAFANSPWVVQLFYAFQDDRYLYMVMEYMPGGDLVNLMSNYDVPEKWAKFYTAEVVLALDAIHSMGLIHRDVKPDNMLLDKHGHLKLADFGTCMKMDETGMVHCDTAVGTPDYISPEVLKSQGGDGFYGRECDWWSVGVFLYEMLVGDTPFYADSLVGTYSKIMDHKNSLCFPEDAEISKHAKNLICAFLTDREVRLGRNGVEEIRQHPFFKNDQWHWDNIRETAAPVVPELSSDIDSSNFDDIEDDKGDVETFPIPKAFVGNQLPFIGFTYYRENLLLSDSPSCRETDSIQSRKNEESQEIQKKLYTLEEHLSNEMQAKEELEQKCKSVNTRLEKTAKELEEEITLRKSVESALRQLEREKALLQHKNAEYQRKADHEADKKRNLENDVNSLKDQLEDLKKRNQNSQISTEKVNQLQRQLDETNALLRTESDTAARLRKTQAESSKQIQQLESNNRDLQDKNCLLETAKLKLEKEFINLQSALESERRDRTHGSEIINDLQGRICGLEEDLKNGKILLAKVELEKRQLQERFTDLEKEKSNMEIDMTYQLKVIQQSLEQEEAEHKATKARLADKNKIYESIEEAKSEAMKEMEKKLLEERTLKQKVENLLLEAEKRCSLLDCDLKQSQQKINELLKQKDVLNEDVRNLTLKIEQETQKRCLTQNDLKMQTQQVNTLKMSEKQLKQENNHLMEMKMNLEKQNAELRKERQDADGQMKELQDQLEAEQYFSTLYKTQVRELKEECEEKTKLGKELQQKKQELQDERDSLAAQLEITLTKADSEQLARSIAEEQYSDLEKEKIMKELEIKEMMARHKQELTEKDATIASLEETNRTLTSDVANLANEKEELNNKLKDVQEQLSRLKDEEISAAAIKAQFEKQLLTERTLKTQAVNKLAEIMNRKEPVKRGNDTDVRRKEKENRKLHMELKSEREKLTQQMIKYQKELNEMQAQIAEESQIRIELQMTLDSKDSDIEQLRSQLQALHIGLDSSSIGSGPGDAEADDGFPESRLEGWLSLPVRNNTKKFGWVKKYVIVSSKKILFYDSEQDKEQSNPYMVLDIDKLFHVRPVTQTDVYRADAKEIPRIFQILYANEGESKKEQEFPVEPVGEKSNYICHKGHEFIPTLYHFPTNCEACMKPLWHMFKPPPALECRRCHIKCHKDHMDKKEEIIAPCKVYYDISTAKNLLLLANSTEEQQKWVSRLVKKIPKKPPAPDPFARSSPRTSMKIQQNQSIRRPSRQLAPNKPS

Chain of Rho-associated protein kinase 1 (Q13464 whole entry, the tested form may be a part): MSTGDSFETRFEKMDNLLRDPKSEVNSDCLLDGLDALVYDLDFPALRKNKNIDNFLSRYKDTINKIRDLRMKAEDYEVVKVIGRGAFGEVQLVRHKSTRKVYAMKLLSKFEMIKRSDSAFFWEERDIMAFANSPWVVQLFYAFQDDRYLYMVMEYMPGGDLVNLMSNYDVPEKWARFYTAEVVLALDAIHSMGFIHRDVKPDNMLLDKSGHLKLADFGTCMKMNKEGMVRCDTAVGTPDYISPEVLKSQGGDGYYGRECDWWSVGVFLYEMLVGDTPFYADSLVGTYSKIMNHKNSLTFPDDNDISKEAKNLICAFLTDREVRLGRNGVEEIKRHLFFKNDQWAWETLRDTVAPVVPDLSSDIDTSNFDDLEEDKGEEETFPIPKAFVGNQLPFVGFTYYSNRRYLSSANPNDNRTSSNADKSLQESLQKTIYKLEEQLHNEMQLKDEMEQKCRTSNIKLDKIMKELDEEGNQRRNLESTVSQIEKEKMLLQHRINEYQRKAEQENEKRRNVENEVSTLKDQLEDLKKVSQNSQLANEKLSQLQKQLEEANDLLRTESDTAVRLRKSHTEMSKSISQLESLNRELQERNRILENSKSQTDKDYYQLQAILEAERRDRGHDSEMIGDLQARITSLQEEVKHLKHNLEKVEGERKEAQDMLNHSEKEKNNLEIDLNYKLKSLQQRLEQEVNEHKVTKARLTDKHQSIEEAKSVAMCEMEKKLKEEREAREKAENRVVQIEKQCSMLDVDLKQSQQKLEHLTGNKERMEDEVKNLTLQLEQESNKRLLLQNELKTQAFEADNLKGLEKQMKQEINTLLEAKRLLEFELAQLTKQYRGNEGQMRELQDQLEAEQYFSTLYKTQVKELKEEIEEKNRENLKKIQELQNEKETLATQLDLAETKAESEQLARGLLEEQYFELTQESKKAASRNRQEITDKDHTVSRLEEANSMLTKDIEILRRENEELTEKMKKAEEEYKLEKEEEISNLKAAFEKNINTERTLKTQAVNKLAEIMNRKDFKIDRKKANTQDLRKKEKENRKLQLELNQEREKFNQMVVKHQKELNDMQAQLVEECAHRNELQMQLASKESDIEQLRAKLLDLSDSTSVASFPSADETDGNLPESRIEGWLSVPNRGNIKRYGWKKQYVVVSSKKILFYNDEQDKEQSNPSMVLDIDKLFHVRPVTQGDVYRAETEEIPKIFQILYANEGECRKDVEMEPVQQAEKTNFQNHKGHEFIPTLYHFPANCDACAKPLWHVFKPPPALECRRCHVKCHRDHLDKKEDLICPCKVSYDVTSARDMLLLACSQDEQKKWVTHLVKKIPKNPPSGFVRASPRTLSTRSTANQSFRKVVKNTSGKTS

Row | Compound | IC50 [1] [nM] | IC50 [2] [nM] | IC50 [3] [nM]
1 | CN(C)c1ccc(C(=O)Nc2cccc(NC(=O)COc3ccc4occc(=O)c4c3)c2)cc1 | > 10000 | > 10000 | > 10000
2 | CCCC(=O)Nc1cccc(NC(=O)COc2ccc3c(=O)ccoc3c2)c1 | > 10000 | 1430 | 176
3 | Cn1ccc(S(=O)(=O)Nc2cccc(NC(=O)COc3ccc4c(=O)ccoc4c3)c2)n1 | > 10000 | > 10000 | 1340
4 | CN(C)c1ccc(C(=O)Nc2cccc(NC(=O)COc3ccc4c(c3)OCO4)c2)cc1 | > 10000 | > 10000 | > 10000
5 | O=C(COc1ccc2c(=O)ccoc2c1)Nc1cccc(NC(=O)c2ccc(C(=O)O)cc2)c1 | > 10000 | 6890 | 2030
6 | CCc1ccc(C(=O)Nc2cccc(NC(=O)COc3ccc4c(=O)ccoc4c3)c2)cc1 | > 10000 | 235 | 24
7 | Cc1ccc(C(=O)Nc2cccc(NC(=O)COc3ccc4c(=O)ccoc4c3)c2)cc1 | > 10000 | 183 | 22
8 | CN(C)c1ccc(C(=O)Nc2cccc(NC(=O)COc3ccc4c(c3)NC(=O)CC4)c2)cc1 | > 10000 | > 10000 | 3140
9 | CC(C)(C)c1ccc(S(=O)(=O)Nc2cccc(NC(=O)COc3ccc4c(=O)ccoc4c3)c2)cc1 | > 10000 | > 10000 | 899
10 | Cc1coc2cc(OCC(=O)Nc3cccc(NC(=O)c4ccc(N(C)C)cc4)c3)ccc2c1=O | > 10000 | > 10000 | 2150
11 | Cc1c(OCC(=O)Nc2cccc(NC(=O)c3ccc(N(C)C)cc3)c2)ccc2c(=O)ccoc12 | > 10000 | > 10000 | 4160
12 | CN(C)c1ccc(C(=O)Nc2cccc(NS(=O)(=O)COc3ccc4c(=O)ccoc4c3)c2)cc1 | > 10000 | 117 | 27
13 | CN(C)c1ccc(C(=O)Nc2ccc(NC(=O)COc3ccc4c(=O)ccoc4c3)cc2C(F)(F)F)cc1 | > 10000 | > 10000 | 7100
14 | O=C(COc1ccc2c(=O)ccoc2c1)Nc1cccc(NS(=O)(=O)c2ccc(C(F)(F)F)cc2)c1 | > 10000 | > 10000 | 6890
15 | COc1ccc(OCC(=O)Nc2cccc(NC(=O)c3ccc(N(C)C)cc3)c2)cc1OC | > 10000 | > 10000 | > 10000
16 | Cc1nc(C(=O)Nc2cccc(NC(=O)COc3ccc4c(=O)ccoc4c3)c2)cs1 | > 10000 | 473 | 33
17 | O=C(COc1ccc2c(=O)ccoc2c1)Nc1cccc(NC(=O)c2ccc(F)cc2)c1 | > 10000 | 129 | 54
18 | CN(C)c1ccc(C(=O)Nc2cccc(NC(=O)COc3ccc4c(c3)OCCC4=O)c2)cc1 | > 10000 | 144 | 85
19 | Cc1ccc(NC(=O)c2ccc(N(C)C)cc2)cc1NC(=O)COc1ccc2c(=O)ccoc2c1 | > 10000 | > 10000 | 3530

Row | Compound | IC50 [1] [nM] | IC50 [2] [nM] | IC50 [3] [nM]
20 | O=C(COc1ccc2c(=O)ccoc2c1)Nc1cccc(NC(=O)c2ccccc2)c1 | 3260 | 120 | 16
21 | CN(C)c1ccc(C(=O)Nc2cc(NC(=O)COc3ccc4c(=O)ccoc4c3)cc(C(F)(F)F)c2)cc1 | > 10000 | > 10000 | > 10000
22 | Cc1cc(C(=O)Nc2cccc(NC(=O)COc3ccc4c(=O)ccoc4c3)c2)ccc1C(F)(F)F | > 10000 | 460 | 43
23 | Cc1cc(NC(=O)COc2ccc3c(=O)ccoc3c2)cc(NC(=O)c2ccc(N(C)C)cc2)c1 | > 10000 | > 10000 | > 10000
24 | COc1ccc(C(=O)Nc2cccc(NC(=O)COc3ccc4c(=O)ccoc4c3)c2)cc1 | > 10000 | 18 | 7
25 | CN(C)c1ccc(S(=O)(=O)Nc2cccc(NC(=O)COc3ccc4c(=O)ccoc4c3)c2)cc1 | > 10000 | 803 | 263
26 | COc1ccc(OCC(=O)Nc2cccc(NC(=O)c3ccc(N(C)C)cc3)c2)cc1F | > 10000 | 1820 | 652
27 | CC(=O)c1ccc(OCC(=O)Nc2cccc(NC(=O)c3ccc(N(C)C)cc3)c2)cc1F | > 10000 | 445 | 98
28 | CCOc1ccc(C(=O)Nc2cccc(NC(=O)COc3ccc4c(=O)ccoc4c3)c2)cc1 | > 10000 | 17 | 9
29 | COc1cc(OCC(=O)Nc2cccc(NC(=O)c3ccc(N(C)C)cc3)c2)ccc1C=O | > 10000 | 3740 | 306
30 | Cc1cc(NC(=O)COc2ccc3c(=O)ccoc3c2)cc(NC(=O)c2ccc(N(C)C)cc2)c1C | > 10000 | 3950 | 374
31 | CC(=O)Nc1cccc(NC(=O)COc2ccc3c(=O)ccoc3c2)c1 | > 10000 | 2500 | 136
32 | COc1cccc(OCC(=O)Nc2cccc(NC(=O)c3ccc(N(C)C)cc3)c2)c1 | > 10000 | > 10000 | 5740
33 | Cc1c(NC(=O)COc2ccc3c(=O)ccoc3c2)cccc1NC(=O)c1ccc(N(C)C)cc1 | > 10000 | > 10000 | > 10000
34 | NCc1ccc(C(=O)Nc2cccc(NC(=O)COc3ccc4c(=O)ccoc4c3)c2)cc1 | > 10000 | 532 | 66
35 | N#Cc1ccc(C(=O)Nc2cccc(NC(=O)COc3ccc4c(=O)ccoc4c3)c2)cc1 | > 10000 | 123 | 15
36 | Nc1cccc(C(=O)Nc2cccc(NC(=O)COc3ccc4c(=O)ccoc4c3)c2)c1 | > 10000 | 670 | 58
37 | CN(C)c1ccc(C(=O)Nc2ccc(CNC(=O)COc3ccc4c(=O)ccoc4c3)cc2)cc1 | > 10000 | > 10000 | 999
38 | CN(C)c1ccc(C(=O)Nc2cccc(NC(=O)COc3ccc4c(c3)OCCO4)c2)cc1 | > 10000 | > 10000 | > 10000

Row | Compound | IC50 [1] [nM] | IC50 [2] [nM] | IC50 [3] [nM]
39 | O=C(COc1ccc2c(=O)ccoc2c1)Nc1cccc(NC(=O)c2cnc(C(F)(F)F)s2)c1 | > 10000 | 160 | 10
40 | O=C(COc1ccc2c(=O)ccoc2c1)Nc1cccc(NS(=O)(=O)c2ccc(OC(F)(F)F)cc2)c1 | > 10000 | 6440 | 1280
41 | O=C(COc1ccc2c(=O)ccoc2c1)Nc1cccc(NC(=O)c2cccc([N+](=O)[O-])c2)c1 | > 10000 | 528 | 41
42 | O=C(COc1ccc2c(=O)ccoc2c1)Nc1cccc(NC(=O)c2ccc(OC(F)(F)F)cc2)c1 | > 10000 | 869 | 77
43 | CN(C)c1ccc(C(=O)Nc2cccc(NC(=O)COc3ccc4c(c3)CCC(=O)N4)c2)cc1 | > 10000 | > 10000 | 9970
44 | O=C(COc1ccc2c(=O)ccoc2c1)Nc1cccc(NC(=O)c2ccc(Br)cc2)c1 | > 10000 | 303 | 49
45 | COC(=O)c1ccc(C(=O)Nc2cccc(NC(=O)COc3ccc4c(=O)ccoc4c3)c2)cc1 | > 10000 | 72 | 29
46 | CN(C)c1ccc(C(=O)Nc2cc(F)cc(NC(=O)COc3ccc4c(=O)ccoc4c3)c2)cc1 | > 10000 | 49 | 22
47 | Cc1cc(C(=O)Nc2cccc(NC(=O)COc3ccc4c(=O)ccoc4c3)c2)no1 | > 10000 | 68 | 5
48 | CC(C)(C)c1cc(C(=O)Nc2cccc(NC(=O)COc3ccc4c(=O)ccoc4c3)c2)no1 | > 10000 | 101 | 5
49 | Nc1ccc(C(=O)Nc2cccc(NC(=O)COc3ccc4c(=O)ccoc4c3)c2)cc1 | > 10000 | 802 | 83
50 | Cc1cc(NC(=O)COc2ccc3c(=O)ccoc3c2)ccc1NC(=O)c1ccc(N(C)C)cc1 | > 10000 | > 10000 | 4210
51 | Cc1ccc(NC(=O)COc2ccc3c(=O)ccoc3c2)cc1NC(=O)c1ccc(N(C)C)cc1 | > 10000 | 1040 | 169
52 | CCCc1ccc(C(=O)Nc2cccc(NC(=O)COc3ccc4c(=O)ccoc4c3)c2)cc1 | > 10000 | 143 | 14
53 | O=C(COc1ccc2c(=O)ccoc2c1)Nc1cccc(NC(=O)c2ccc([N+](=O)[O-])cc2)c1 | 9340 | 67 | 15
54 | CC(C)(C)c1ccc(C(=O)Nc2cccc(NC(=O)COc3ccc4c(=O)ccoc4c3)c2)cc1 | > 10000 | 165 | 34
55 | CN(C)c1ccc(C(=O)Nc2ccc(NC(=O)COc3ccc4c(=O)ccoc4c3)cc2)cc1 | > 10000 | 1050 | 302
56 | CN(C)c1ccc(C(=O)Nc2cc(Br)cc(NC(=O)COc3ccc4c(=O)ccoc4c3)c2)cc1 | > 10000 | > 10000 | 4560
